The record followed here is patent US10442763B2, “EBNA1 inhibitors and methods using same” (priority 2015, dated 2019).

As usually defined, the IC50 is the point on the concentration scale where inhibition reaches its midpoint. Low values mean greater potency, high ones weaker potency.

SMILES strings stand for the structures.

In this assay the target is T1, His-EBNA1 (DNA binding domain of EBNA1, amino acids 459-607) (Epstein-Barr virus, UniProt P03211).
T1 construct: made in house; host or cells: E. coli
T1 sequence (P03211 459-607): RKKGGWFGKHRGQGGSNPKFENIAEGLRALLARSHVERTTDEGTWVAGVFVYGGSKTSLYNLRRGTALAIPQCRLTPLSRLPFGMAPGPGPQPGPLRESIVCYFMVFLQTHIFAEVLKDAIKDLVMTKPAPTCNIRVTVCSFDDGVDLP
The experiment in a line: Inhibition of 5'-biotin-oPL4624 binding to His-EBNA1 using Alpha Screen technology. The procedure: Inhibition of 5′-Biotin-oPL4624 Binding to his-EBNA1 Using Alpha Screen Technology
Assays were performed using the DNA binding domain of EBNA1 (amino acids 459-607), which was His-tagged (His-EBNA1) and the self-complementary biotinylated (bt) oligonucleotide with the sequence 5′-bt-[…]-ATGCTACCC-3′ (bt-oPL4624; or 5′-bt-SEQ ID NO: 1). The protein was expressed in E. coli and purified according to Barwell, et al., 1995, J Biol Chem. 270:20556-9.). The bt-oPL4624 oligonucleotide was purchased from Integrated DNA Technologies, Inc (IDT). AlphaScreen donor, acceptor beads and white, opaque 384-well assay plates were purchased from PerkinElmer, Inc.
Assays contained 15 nM His-EBNA1, 0.2 nM bt-oPL4624, 5 μg/mL AlphaScreen streptavidin donor beads and nickel chelate acceptor beads, and a series of concentrations of test compound ranging from 3.2 nM to 100 μM in a total volume of 40 μL assay buffer (25 mM Tris, pH 7.2, 160 mM NaCl, 1 mM MgCl2). His-EBNA1 (30 nM) and bt-oPL4624 (0.4 nM) were preincubated with 10 μg/mL nickel chelate AlphaScreen acceptor bead, or 10 μg/mL streptavidin AlphaScreen donor bead, respectively, for 30 minutes at room temperature in assay buffer. Twenty microliters of His-EBNA1/acceptor bead mix and bt-oPL4624/donor bead mix were transferred to assay plates containing 0.4 μL of 1:3 serial dilutions of test compounds previously prepared in DMSO at concentrations ranging from 0.32 μM to 10 mM. Non-specific binding was determined with 5 μg/mL AlphaScreen acceptor bead in the absence of His-EBNA1. After 2 hr incubation at room temperature, the AlphaScreen signal was measured on the Envision plate reader (PerkinElmer, Inc.) at 680 nm excitation and 570 nm emission. Inhibition values at each concentration of test compound were determined by setting 100% equal to raw data values in the absence of EBNA1 and 0% equal to the raw data values in the presence of EBNA1. Nonlinear regression fits of the inhibition values to a one-site dose-response equation were performed using GraphPad Prism.
On the technique in general: Alpha assays give light when donor and acceptor beads are brought close together.
Molecule `O=C(O)c1cccc(C#Cc2ccc(CN3CCN(C4CCCCC4)CC3)cc2)c1-c1ccc2cc[nH]c2c1` [Entry 165] came in with an IC50 of 10 to 100 µM.
Molecule `O=C(O)c1cccc(C#Cc2ccc(OCCC3CCOCC3)cc2)c1-c1ccc2cc[nH]c2c1` [Entry 143] registered an IC50 of 1 to 10 µM.
As to `O=C(O)c1cccc(C#Cc2ccc(OC3CCOCC3)nc2)c1-c1ccc2cc[nH]c2c1` [Entry 100], the IC50 lay within 1 to 10 µM.
In turn, `CS(=O)(=O)N1CCc2ccc(C#Cc3cccc(C(=O)O)c3-c3ccc4cc[nH]c4c3)cc2C1` [Entry 73] returned an IC50 of 1 to 10 µM.
Consider `CCS(=O)(=O)N1CCN(Cc2ccc(C#Cc3cccc(C(=O)O)c3-c3ccc4cc[nH]c4c3)cc2)CC1` [Entry 183], for which the half-inhibitory concentration (IC50) lay in the range of 10 to 100 µM.
Take `O=C(O)c1cccc(C#Cc2ccc(COc3ccccc3)cc2)c1-c1ccc2cc[nH]c2c1` [Entry 88]: the IC50 is 1 to 10 µM.
The value for `CS(=O)(=O)N1CCC(Cn2ccc3cc(C#Cc4cccc(C(=O)O)c4-c4ccc5cc[nH]c5c4)ccc32)CC1` [Entry 19] was 1 to 10 µM.
Consider `CS(=O)(=O)N1CCN(Cc2ccc(C#Cc3cccc(C(=O)O)c3-c3ccc4[nH]ccc4c3)cc2)CC1` [Entry 179], for which the IC50 lay in the range of 10 to 100 µM.
As for `O=C(O)c1cccc(C#Cc2ccc(COC3CCOCC3)cc2F)c1-c1ccc2cc[nH]c2c1` [Entry 186], the IC50 lay in the range of 1 to 10 µM.
The molecule `O=C(NCc1ccc(C#Cc2cccc(C(=O)O)c2-c2ccc3cc[nH]c3c2)cc1)c1ccccc1` [Entry 197] showed an IC50 of 1 to 10 µM.
Molecule `O=C(O)c1cccc(C#Cc2ccc(COC3CCOCC3)cc2)c1-c1ccc2cc[nH]c2c1` [Entry 27] returned an IC50 of 10 to 100 µM.
`CS(=O)(=O)N1CCC(CN2CCc3cc(C#Cc4cccc(C(=O)O)c4-c4ccc5cc[nH]c5c4)ccc3C2)C1` (stereo not shown) [Entry 61] returned an IC50 of 10 to 100 µM.
For `CS(=O)(=O)N1CC2CN(Cc3ccc(C#Cc4cccc(C(=O)O)c4-c4ccc5cc[nH]c5c4)cc3)CC2C1` (stereo not shown) [Entry 189], the IC50 lay within 10 to 100 µM.
For `O=C(O)c1cccc(C#Cc2ccc3c(ccn3CCCN3CCOCC3)c2)c1-c1ccc2cc[nH]c2c1` [Entry 14], the IC50 fell in the range of 10 to 100 µM.
With `COC1CCN(Cc2nc(=O)c3cc(C#Cc4cccc(C(=O)O)c4-c4ccc5cc[nH]c5c4)ccc3[nH]2)CC1` [Entry 133], the IC50 lay within 10 to 100 µM.
The value for `O=C(O)c1cccc(C#Cc2ccc(C(=O)N3CCC(F)(F)CC3)c(O)c2)c1-c1ccc2cc[nH]c2c1` [Entry 51] was 1 to 10 µM; that for `CN(C)S(=O)(=O)NC(=O)c1cccc(C#Cc2ccc(COC3CCOCC3)cc2)c1-c1ccc2cc[nH]c2c1` [Entry 194] was 1 to 10 µM; that for `O=C(O)c1cccc(C#Cc2ccc(CN3CCN(C4CCCC4)CC3)cc2)c1-c1ccc2cc[nH]c2c1` [Entry 170] was 10 to 100 µM.
`CC(C)S(=O)(=O)N1Cc2ccc(C#Cc3cccc(C(=O)O)c3-c3ccc4cc[nH]c4c3)cc2C1` [Entry 57] displayed an IC50 of 1 to 10 µM.
The value for `O=C(O)c1cccc(C#Cc2ccc(CN3CCNCC3)cc2)c1-c1ccc2cc[nH]c2c1` [Entry 167] was 10 to 100 µM.
In the case of `CC(C)S(=O)(=O)N1CCN(Cc2ccc(C#Cc3cccc(C(=O)O)c3-c3ccc4cc[nH]c4c3)cc2)CC1` [Entry 191], the IC50 lay within 1 to 10 µM.
For `O=C(O)c1cccc(C#Cc2ccc(OC3CCS(=O)(=O)CC3)cc2)c1-c1ccc2[nH]ccc2c1` [Entry 184], the IC50 fell in the range of 1 to 10 µM.
Next, `CS(=O)(=O)N1CCC(CN2CCc3ccc(C#Cc4cccc(C(=O)O)c4-c4ccc5cc[nH]c5c4)cc3C2)C1` (stereo not shown) [Entry 62]: 10 to 100 µM; `NS(=O)(=O)N1CCN(Cc2ccc(C#Cc3cccc(C(=O)O)c3-c3ccc4cc[nH]c4c3)cc2)CC1` [Entry 205]: 1 to 10 µM; `CCN1CCN(Cc2ccc(C#Cc3cccc(C(=O)O)c3-c3ccc4cc[nH]c4c3)cc2)CC1` [Entry 146]: 10 to 100 µM.
For the molecule `COc1ccc(OCc2ccc(C#Cc3cccc(C(=O)O)c3-c3ccc4cc[nH]c4c3)cc2)cc1` [Entry 85], the IC50 fell in the range of 1 to 10 µM.
Molecule `CS(=O)(=O)N1CC(CN2CCc3cc(C#Cc4cccc(C(=O)O)c4-c4ccc5cc[nH]c5c4)ccc3C2)C1` [Entry 64] returned an IC50 of 10 to 100 µM.
In turn, `Nc1nc(-c2cccc(C#Cc3cccc(C(=O)O)c3-c3ccc4cc[nH]c4c3)c2)cs1` [Entry 125] registered an IC50 of 1 to 10 µM.
Molecule `N#Cc1cccc(OCc2ccc(C#Cc3cccc(C(=O)O)c3-c3ccc4cc[nH]c4c3)cc2)c1` [Entry 81] displayed an IC50 of 1 to 10 µM.
In turn, `O=C(O)c1cccc(C#Cc2ccc(CN3CCN(c4cnccn4)CC3)cc2)c1-c1ccc2cc[nH]c2c1` [Entry 172] yielded an IC50 of 1 to 10 µM.
The molecule `Nc1ncc(-c2ccc(C#Cc3cccc(C(=O)O)c3-c3ccc4cc[nH]c4c3)cc2)o1` [Entry 130] had a half-maximal inhibitory concentration (IC50) of 1 to 10 µM.
In the case of `CC(=O)Nc1cc(C#Cc2cccc(C(=O)O)c2-c2ccc3cc[nH]c3c2)ccc1OC1CCOCC1` [Entry 2], the IC50 was 10 to 100 µM.
In the case of `CC(=O)N1C2CCC1CC(c1ccc(C#Cc3cccc(C(=O)O)c3-c3ccc4cc[nH]c4c3)cc1)C2` (stereo not shown) [Entry 3], the IC50 fell in the range of 10 to 100 µM.
The value for `CS(=O)(=O)c1ccccc1OCc1ccc(C#Cc2cccc(C(=O)O)c2-c2ccc3cc[nH]c3c2)cc1` [Entry 97] was 1 to 10 µM; that for `O=C(O)c1cccc(C#Cc2ccc3c(ccn3CCN3CCS(=O)(=O)CC3)c2)c1-c1ccc2cc[nH]c2c1` [Entry 22] was 1 to 10 µM.
Molecule `O=C(O)c1cccc(C#Cc2ccc(-c3nn[nH]n3)cc2)c1-c1ccc2cc[nH]c2c1` [Entry 41] had an IC50 below 1 µM.
Molecule `COc1cc(C#Cc2cccc(C(=O)O)c2-c2ccc3cc[nH]c3c2)ccc1CN1CCC(N2CCOCC2)CC1` [Entry 47] gave an IC50 of 100 to 1000 µM.
For the molecule `CS(=O)(=O)N1CCC(CN2Cc3ccc(C#Cc4cccc(C(=O)O)c4-c4ccc5cc[nH]c5c4)cc3C2)CC1` [Entry 72], the IC50 lay within 10 to 100 µM.
`O=C(O)c1cccc(C#Cc2ccc3cc(CN4CCS(=O)(=O)CC4)[nH]c3c2)c1-c1ccc2cc[nH]c2c1` [Entry 34] showed an IC50 of 1 to 10 µM.
Consider `C(#Cc1cccc(-c2nnn[nH]2)c1-c1ccc2cc[nH]c2c1)c1ccc(COC2CCOCC2)cc1` [Entry 196], for which the IC50 is 1 to 10 µM.
The value for `O=C1CCC(C(=O)NCc2ccc(C#Cc3cccc(C(=O)O)c3-c3ccc4cc[nH]c4c3)cc2)CC1` [Entry 198] was below 1 µM; that for `CC(C)(O)c1ccc(C#Cc2cccc(C(=O)O)c2-c2ccc3cc[nH]c3c2)cc1` [Entry 120] was 1 to 10 µM.
Molecule `O=C(O)c1cccc(C#Cc2ccccc2)c1-c1cnc2ncccc2c1` [Entry 115] returned an IC50 of 100 to 1000 µM.
`N#Cc1cc(C#Cc2cccc(C(=O)O)c2-c2ccc3cc[nH]c3c2)ccc1OC1CCOCC1` [Entry 103] gave an IC50 of 1 to 10 µM.
`COc1cccc(OCc2ccc(C#Cc3cccc(C(=O)O)c3-c3ccc4cc[nH]c4c3)cc2)c1` [Entry 87] displayed an IC50 of 1 to 10 µM.
Take `CN1CCN(Cc2ccc(C#Cc3cccc(C(=O)O)c3-c3cnc4[nH]ccc4c3)cc2)CC1` [Entry 176]: the IC50 lay in the range of 10 to 100 µM.
Consider `O=C(O)c1cccc(C#Cc2ccc3c(CN4CCS(=O)(=O)CC4)c[nH]c3c2)c1-c1ccc2cc[nH]c2c1` [Entry 32], for which the IC50 fell in the range of 1 to 10 µM.
For the molecule `Nc1nc(-c2ccc(C#Cc3cccc(C(=O)O)c3-c3ccc4cc[nH]c4c3)cc2)cs1` [Entry 121], the IC50 is 1 to 10 µM.
`O=C(Nc1ccc(N2CCS(=O)(=O)CC2)cc1)c1cccc(C#Cc2cccc(C(=O)O)c2-c2ccc3cc[nH]c3c2)c1` [Entry 138] gave an IC50 of 1 to 10 µM.
As to `O=C(O)c1cccc(C#Cc2ccccc2)c1-c1cc2[nH]ccc2cc1F` [Entry 113], the half-maximal inhibitory concentration (IC50) lay within 1 to 10 µM.
As for `CS(=O)(=O)c1ccc(OCc2ccc(C#Cc3cccc(C(=O)O)c3-c3ccc4cc[nH]c4c3)cc2)cc1` [Entry 95], the IC50 was 1 to 10 µM.
The molecule `O=C(O)c1cccc(C#Cc2cnc3c(c2)CCCN3)c1-c1ccc2cc[nH]c2c1` [Entry 16] yielded an IC50 of 1 to 10 µM.
In the case of `O=C(O)c1cccc(C#Cc2ccc3c(CN4CCOCC4)c[nH]c3c2F)c1-c1ccc2cc[nH]c2c1` [Entry 39], the IC50 was in the range of 1 to 10 µM.
In the case of `CS(=O)(=O)Nc1cccc(CN2CCc3cc(C#Cc4cccc(C(=O)O)c4-c4ccc5cc[nH]c5c4)ccc3C2)c1` [Entry 66], the half-inhibitory concentration (IC50) was in the range of 1 to 10 µM.
In the case of `COC1CCN(Cc2ccc(C#Cc3cccc(C(=O)O)c3-c3ccc4cc[nH]c4c3)cc2)C1` (stereo not shown) [Entry 163], the IC50 was 10 to 100 µM.
Molecule `CS(=O)(=O)N1CCN(Cc2ccc(C#Cc3cccc(C(=O)O)c3-c3ccc4cc[nH]c4c3)cc2)CC1` [Entry 161] had an IC50 of 10 to 100 µM.
The molecule `CC(=O)N1CCc2cc(C#Cc3cccc(C(=O)O)c3-c3ccc4cc[nH]c4c3)ccc2C1` [Entry 78] displayed an IC50 of 1 to 10 µM.
`COC1CCN(C(=O)c2ccc(C#Cc3cccc(C(=O)O)c3-c3ccc4cc[nH]c4c3)cc2)CC1` [Entry 203] gave an IC50 of 1 to 10 µM.
